Entries after “also recorded” stand apart in the source; their conditions may differ. Where two headings read alike, the source gives them in different places. Marks after values point to notes of the source that are not given here.
Experiments:
[1] = target: T1, human κ opioid receptor (Homo sapiens, UniProt P41145); experiment: Inhibition of U69,593-stimulated [35S]GTPγS binding; format: biochemical; settings: for fold more potent antagonist than N-methyl counterpart, κ receptor: ratio of Ke values (a vs b analogue)
T1 sequence (P41145 whole entry): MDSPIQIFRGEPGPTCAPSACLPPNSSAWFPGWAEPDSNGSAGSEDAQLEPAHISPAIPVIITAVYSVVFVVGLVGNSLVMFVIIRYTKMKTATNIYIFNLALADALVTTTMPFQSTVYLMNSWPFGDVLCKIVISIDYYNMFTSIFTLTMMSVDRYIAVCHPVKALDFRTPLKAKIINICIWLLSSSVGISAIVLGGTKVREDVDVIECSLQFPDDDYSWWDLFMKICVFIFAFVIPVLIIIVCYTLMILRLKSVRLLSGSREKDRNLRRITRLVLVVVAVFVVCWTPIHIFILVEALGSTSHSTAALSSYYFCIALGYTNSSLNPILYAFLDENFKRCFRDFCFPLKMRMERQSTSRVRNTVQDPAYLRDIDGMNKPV

[2] = target: T2, human μ opioid receptor (Homo sapiens, UniProt P35372); experiment: [35S]GTPγS binding assay, intrinsic; format: biochemical
T2 sequence (P35372 whole entry): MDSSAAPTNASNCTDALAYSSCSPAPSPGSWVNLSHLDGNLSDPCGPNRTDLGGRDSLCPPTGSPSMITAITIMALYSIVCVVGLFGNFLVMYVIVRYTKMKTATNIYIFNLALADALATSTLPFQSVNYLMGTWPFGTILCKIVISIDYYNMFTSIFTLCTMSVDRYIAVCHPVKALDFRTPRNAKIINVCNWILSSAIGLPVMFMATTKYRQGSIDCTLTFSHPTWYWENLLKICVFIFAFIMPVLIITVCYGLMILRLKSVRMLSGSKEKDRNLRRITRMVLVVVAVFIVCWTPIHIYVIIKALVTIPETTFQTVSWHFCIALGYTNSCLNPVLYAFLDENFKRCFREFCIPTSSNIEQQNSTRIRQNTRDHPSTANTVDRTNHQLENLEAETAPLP

[3] = target: T3, human δ opioid receptor (Homo sapiens, UniProt P41143); experiment: [35S]GTPγS binding assay, intrinsic; format: biochemical
T3 sequence (P41143 whole entry): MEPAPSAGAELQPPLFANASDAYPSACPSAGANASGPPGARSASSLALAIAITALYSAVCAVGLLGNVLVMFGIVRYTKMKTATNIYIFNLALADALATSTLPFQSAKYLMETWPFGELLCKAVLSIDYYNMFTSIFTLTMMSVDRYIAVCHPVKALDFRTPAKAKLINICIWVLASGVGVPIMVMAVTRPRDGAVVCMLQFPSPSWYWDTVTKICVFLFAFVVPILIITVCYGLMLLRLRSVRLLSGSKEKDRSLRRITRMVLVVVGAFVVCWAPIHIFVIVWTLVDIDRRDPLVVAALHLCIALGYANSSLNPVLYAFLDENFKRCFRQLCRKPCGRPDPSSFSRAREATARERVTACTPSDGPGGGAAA

[4] = target: T1, human κ opioid receptor; experiment: [35S]GTPγS binding assay, intrinsic; format: biochemical
[5] = target: T2, human μ opioid receptor; settings: cloned human μ receptor; data taken from ref 15; cited from earlier work
[6] = target: T3, human δ opioid receptor; settings: cloned human δ receptor; data taken from ref 15; cited from earlier work
[7] = tested on: μ receptor; settings: mouse writhing test, μ antagonism; cited from earlier work
[8] = tested on: κ receptor; settings: mouse writhing test, κ antagonism; cited from earlier work
[9] = tested on: opioid receptor; settings: cited from earlier work
[10] = tested on: opioid receptor; settings: cited from earlier work; remark: listed apart in the source
[11] = target: T3, human δ opioid receptor; experiment: Inhibition of DPDPE-stimulated [35S]GTPγS binding; format: biochemical; settings: for Ke (nM) δ, DPDPE: cloned human δ receptor in CHO cells, mean ± SE, at least three experiments
[12] = target: T2, human μ opioid receptor; experiment: Inhibition of DAMGO-stimulated [35S]GTPγS binding; format: biochemical; settings: for fold more potent antagonist than N-methyl counterpart, μ receptor: ratio of Ke values (a vs b analogue)

Structure (SMILES) | Kb [1] | agonist activity at 10 μM, μ receptor [2] | agonist activity at 10 μM, δ receptor [3] | agonist activity at 10 μM, κ receptor [4] | Kb [12] | Kb [11] | other results
C[C@H]1CN(C)CC[C@@]1(C)c1cccc(O)c1 [Compound 2a, 3-[(3R,4R)-1,3,4-Trimethylpiperidin-4-yl]phenol] | 134 ± 27.1 nM | no opioid agonist efficacy | no opioid agonist efficacy | no opioid agonist efficacy | – | – | Ke (nM) μ, DAMGO [5]: 29.3 ± 3.4 ^b nM; Ke (nM) δ, DPDPE [6]: 681 ± 241 ^b nM; AD50, antagonist of morphine-induced antinociception [7]: 0.74 mg/kg; AD50, antagonist of U50,488-induced antinociception [8]: > 5.0 mg/kg; opioid receptor agonist activity in the mouse writhing test [9]: did not have any opioid receptor agonist activity; opioid receptor agonist activity in the rat tail heat analgesic test [10]: did not have any opioid receptor agonist activity
C[C@H]1CN(CCCc2ccccc2)CC[C@@]1(C)c1cccc(O)c1 [Compound 2b, 3-[(3R,4R)-3,4-Dimethyl-1-(3-phenylpropyl)piperidin-4-yl]phenol] | 0.88 ± 0.17 nM | – | – | – | – | – | Ke (nM) μ, DAMGO [5]: 0.1 ± 0.02 ^b nM; Ke (nM) δ, DPDPE [6]: 0.9 ± 0.32 ^b nM; AD50, antagonist of morphine-induced antinociception [7]: 0.28 mg/kg
C[C@H]1CN(C)CCN1c1cccc(O)c1 [Compound 4a, 3-[(2S)-2,4-Dimethylpiperazin-1-yl]phenol] | – | no opioid agonist efficacy | no opioid agonist efficacy | no opioid agonist efficacy | – | – | Ke (nM) δ, DPDPE [11]: no antagonism; also recorded: IA ^d
C[C@H]1CN(CCCc2ccccc2)CCN1c1cccc(O)c1 [Compound 4b, 3-[(2S)-2-Methyl-4-(3-phenylpropyl)piperazin-1-yl]phenol] | – | no opioid agonist efficacy | no opioid agonist efficacy | no opioid agonist efficacy | – | – | –
CC1CN(C)CCC1c1cccc(O)c1 (stereo not drawn) [Compound 5a, 3-(1,3-Dimethylpiperidin-4-yl)phenol] | 1310 ± 447 nM | – | – | – | 1250 ± 423 nM | – | –
CC1CN(CCCc2ccccc2)CCC1c1cccc(O)c1 (stereo not drawn) [Compound 5b, 3-[3-Methyl-1-(3-phenylpropyl)piperidin-4-yl]phenol] | 16.5 ± 5 nM | no agonist efficacy | no agonist efficacy | no agonist efficacy | 11.9 ± 2 nM | 46 ± 18 nM | fold more potent antagonist than N-methyl counterpart, μ receptor [12]: 105 fold; fold more potent antagonist than N-methyl counterpart, κ receptor [1]: 79 fold
CN1CCC(C)(c2cccc(O)c2)CC1 [Compound 6a, 3-(1,4-Dimethylpiperidin-4-yl)phenol] | 477 ± 150 nM | – | – | – | 974 ± 230 nM | – | Ke (nM) δ, DPDPE [11]: agonist ^c; EC50 [3]: 8300 nM
CC1(c2cccc(O)c2)CCN(CCCc2ccccc2)CC1 [Compound 6b, 3-[4-Methyl-1-(3-phenylpropyl)piperidin-4-yl]phenol] | 21.3 ± 9 nM | no agonist efficacy | no agonist efficacy | no agonist efficacy | 5.5 ± 0.59 nM | 178 ± 47 nM | fold more potent antagonist than N-methyl counterpart, μ receptor [12]: 177 fold; fold more potent antagonist than N-methyl counterpart, κ receptor [1]: 22 fold
CN1CCC(c2cccc(O)c2)CC1 [Compound 7a, 3-(1-Methylpiperidin-4-yl)phenol] | 2700 ± 1300 nM | no agonist activity | no agonist activity | no agonist activity | – | – | Ke (nM) μ, DAMGO ([12]; cloned human μ receptor in CHO cells, mean ± SE, at least three experiments): inactive; also recorded: no antagonist properties; also recorded: IA ^d; Ke (nM) δ, DPDPE [11]: inactive; also recorded: no antagonist properties; also recorded: IA ^d
Oc1cccc(C2CCN(CCCc3ccccc3)CC2)c1 [Compound 7b, 3-[1-(3-Phenylpropyl)piperidin-4-yl]phenol] | 5.8 ± 2 nM | no agonist efficacy | no agonist efficacy | no agonist efficacy | 75.6 ± 21 nM | 418 ± 120 nM | –
CN1CCN(c2cccc(O)c2)CC1 [Compound 8a, 3-(4-Methylpiperazin-1-yl)phenol] | – | no opioid agonist efficacy | no opioid agonist efficacy | no opioid agonist efficacy | 4300 ± 1700 nM | 1600 ± 480 nM | –
Oc1cccc(N2CCN(CCCc3ccccc3)CC2)c1 [Compound 8b, 3-[4-(3-Phenylpropyl)piperazin-1-yl]phenol] | 36.8 ± 16.8 nM | no opioid agonist efficacy | no opioid agonist efficacy | no opioid agonist efficacy | – | – | fold more potent antagonist than N-methyl counterpart, μ receptor [12]: 507 fold; fold more potent antagonist than N-methyl counterpart, δ receptor ([11]; ratio of Ke values (a vs b analogue)): 47 fold

Reference: publication PMC4070716 (Journal of Medicinal Chemistry, 2014)
